Reference: ChEMBL document CHEMBL5154725, “SAR evolution towards potent C-terminal carboxamide peptide inhibitors of Zika virus NS2B-NS3 protease” (Bioorg Med Chem, 2022)
The source made the active and inactive calls. The calls are words filed in the database; no cut-off is given here. Residues, ends and D or L forms follow the SMILES beside them. *: point of attachment. PhAc = O=C(Cc1ccccc1)*

Experiments:
[1] = tested on: Zika virus; assay: Antiviral activity against ZIKV infected in African Green monkey Vero cells assessed as reduction in viral replication; assay type: functional, organism-based
[2] = tested on: Zika virus; assay: Inhibition of 6-His tagged-G4SG4 fused ZIKV NS2B (49 to 95 residues) R95A mutant-NS3 (1 to 170 residue) R29G mutant expressed in Escherichia coli BL21 (DE3) assessed as covalent adduct formation using Bz-Nle-K-RR-AMC substrate preincubated for 10 mins followed by substrate addition and measured after 30 mins by LC-HRMS analysis; settings: time 40.0 min
[3] = Binding affinity to 6-His tagged-G4SG4 fused ZIKV NS2B (49 to 95 residues) R95A mutant-NS3 (1 to 170 residue) R29G mutant expressed in Escherichia coli BL21 (DE3) by surface plasmon resonance assay; set-up: species or system Zika virus
[4] = Stability of compound assessed 6-His tagged-G4SG4 fused ZIKV NS2B (49 to 95 residues) R95A mutant-NS3 (1 to 170 residue) R29G mutant expressed in Escherichia coli BL21 (DE3) based degradation by LC-HRMS analysis; assay type: ADME; settings: zika virus
[5] = (§1) Inhibition of 6-His tagged-G4SG4 fused ZIKV NS2B (49 to 95 residues) R95A mutant-NS3 (1 to 170 residue) R29G mutant expressed in Escherichia coli BL21 (DE3) using Bz-Nle-K-RR-AMC substrate preincubated for 10 mins followed by substrate addition and measured after 30 mins by fluorescence assay; set-up: species or system Zika virus
[6] = Inhibition of 6-His tagged-G4SG4 fused WNV NS2B (1423 to 1470 residues) -NS3 (1506 to 1689 residue) using pERTKR-AMC substrate preincubated for 10 mins followed by substrate addition and measured after 30 mins by fluorescence assay; set-up: species or system West Nile virus
[7] = target: Genome polyprotein (dengue virus type 2, UniProt P29990); assay: Inhibition of 6-His tagged-G4SG4 fused DENV2 NS2B (1394 to 1440 residues) -NS3 (1476 to 1660 residue) expressed in Escherichia coli BL21 (DE3) using Bz-Nle-K-RR-AMC substrate preincubated for 10 mins followed by substrate addition and measured after 30 mins by fluorescence assay
Chain of Genome polyprotein (P29990 1346-1475 limits assumed): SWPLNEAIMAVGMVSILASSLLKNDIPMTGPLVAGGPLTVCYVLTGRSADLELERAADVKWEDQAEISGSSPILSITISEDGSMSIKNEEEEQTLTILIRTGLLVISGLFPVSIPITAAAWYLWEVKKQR
Chain of Genome polyprotein (P29990 1476-2093 limits assumed): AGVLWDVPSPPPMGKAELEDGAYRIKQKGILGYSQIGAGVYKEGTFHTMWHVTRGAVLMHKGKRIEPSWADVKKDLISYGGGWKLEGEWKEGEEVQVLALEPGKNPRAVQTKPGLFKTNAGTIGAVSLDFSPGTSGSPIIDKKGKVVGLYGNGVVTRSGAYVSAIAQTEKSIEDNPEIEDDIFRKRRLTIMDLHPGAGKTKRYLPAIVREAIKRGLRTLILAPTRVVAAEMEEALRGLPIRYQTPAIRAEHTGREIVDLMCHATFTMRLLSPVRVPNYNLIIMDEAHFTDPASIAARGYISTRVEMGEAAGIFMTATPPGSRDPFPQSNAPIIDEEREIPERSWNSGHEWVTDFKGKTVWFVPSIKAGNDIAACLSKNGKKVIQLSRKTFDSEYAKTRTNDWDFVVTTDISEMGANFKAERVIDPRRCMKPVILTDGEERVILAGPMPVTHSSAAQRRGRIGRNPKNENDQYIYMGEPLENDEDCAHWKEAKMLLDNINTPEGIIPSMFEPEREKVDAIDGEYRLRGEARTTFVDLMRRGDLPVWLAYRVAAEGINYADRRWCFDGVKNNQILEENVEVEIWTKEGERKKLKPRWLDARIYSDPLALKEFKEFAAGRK

[8] = target: Trypsin (Homo sapiens, UniProt P07477+P07478+P35030); assay: Inhibition of human trypsin; assay type: protein assay
[9] = tested on: Zika virus; assay: as §1; settings: time 40.0 min

SMILES	EC50 [1]	inhibition [2]	Kd [3]	Stability [4]	IC50 [5]	Ki [5]	IC50 [6]	IC50 [7]	IC50 [8]	IC10 [9]	IC80 [9]
CC(=O)N[C@@H](CCCCN)C(=O)N[C@@H](CCCCN)C(=O)N[C@H](C(=O)NCc1ccc(OCc2ccc(C(F)(F)F)cc2)cc1)c1ccccc1	11200 nM	Active	23 nM	Stable	41 nM	14 nM					
CC(=O)N[C@@H](CCCCN)C(=O)N[C@@H](CCCCN)C(=O)N[C@H](C(=O)NCc1ccccc1)c1ccc(OCc2ccc(C(F)(F)F)cc2)cc1	8500 nM	Active	11 nM	Stable	28 nM	7 nM	800 nM	200 nM	2300 nM		
N=C(N)NCCC[C@H](NC(=O)[C@H](CCCCN)NC(=O)[C@H](CCCCN)NC(=O)Cc1ccccc1)C(N)=O (PhAc-Lys-Lys-Arg-NH2)					3000 nM	2400 nM				300 nM	10000 nM
